Results taken from US20230174473A1, “ANTIMICROBIAL AND ANTIVIRAL SULFUR CONTAINING GLYCEROL MONOESTER DERIVATIVES” (priority 2020, published 2023).
≈ marks a conversion by molar mass, not a printed value.

What was measured:
Group C Streptococcus = settings: Gram Positive; Aerotolerant Anaerobe; 1 strain tested; cited from earlier work
[1] = system: Peptostreptococcus species; settings: Gram Positive; Anaerobe; 1 strain tested; cited from earlier work
Fusobacterium species = settings: Gram Negative; Anaerobe; 1 strain tested; cited from earlier work
Clostridium perfringens = settings: Gram Positive; Anaerobe; 1 strain tested; cited from earlier work
[2] = system: Streptococcus pyogenes (Group A streptococcus) 594; experiment: MIC/MBC at 24 hours; format: cell-based; settings: Streptococcus pyogenes GAS 594, Time 0 2.7E+06 CFU/ml, stationary at 37° C. in 5% CO2
Procedure: Streptococcus pyogenes (Group A streptococcus) 594 is a standard scarlet fever strain that has been extensively published on. The strain was incubated stationary at 37° C. in 5% CO2.
All solutions used in the MBC and MIC studies were prepared from a stock of 100 mg/ml of either GML, SGML or S2GML in absolute ethanol.

Escherichia coli = experiment: MIC and MBC test with E. coli; format: cell-based
Procedure: The conditions for this test were the same as in the above example with S. aureus MN8. The E. coli strain was a laboratory strain from a patient with a confirmed urinary tract infection. The strain is maintained in the laboratory at -80° C.

TSST-1 = format: cell-based, Staphylococcus aureus
S. aureus strains = experiment: Susceptibility of S. aureus strains to GML; format: cell-based, Staphylococcus aureus
Streptococcus agalactiae = settings: Gram Positive; Aerotolerant Anaerobe; 3 strains tested; cited from earlier work
Mycoplasma hominis = settings: Cell Wall deficient; Aerobe; 1 strain tested; cited from earlier work
Proteus vulgaris = settings: Gram Negative; Aerobe; 1 strain tested; cited from earlier work

**Q.** With `CCCCCCCCCCCC(=O)OCC(O)CO` (stereo not shown) [GML, glycerol monolaureate] as the molecule, how does the “Average Bactericidal Concentration” value (Group C Streptococcus) read?
**A.** 30 mg/mL

**Q.** What about the “Average Bactericidal Concentration” value [1] of the same molecule?
**A.** 1 mg/mL

**Q.** What about the “Average Bactericidal Concentration” value (Fusobacterium species) of the same molecule?
**A.** 50 mg/mL

**Q.** What about the “Average Bactericidal Concentration” value (Clostridium perfringens) of the same molecule?
**A.** 1 mg/mL

**Q.** And the MIC/MBC [2]?
**A.** 1.0 µg/mL (≈ 3.64 µM)

**Q.** What about the “Mininum Bactericidal Concentration” value (Escherichia coli; E. coli laboratory strain from a patient with urinary tract infection, same conditions as S. aureus MN8) of the same molecule?
**A.** 500 µg/mL

**Q.** What about the MIC (Escherichia coli; Escherichia coli, read-out: Minimum Inhibitory Concentration) of the same molecule?
**A.** 500 µg/mL (≈ 1820 µM)

**Q.** What about the “inhibition of TSST-1” value (TSST-1) of the same molecule?
**A.** 16 µg/mL

**Q.** And the “concentration to which all S. aureus strains tested remain susceptible” value (S. aureus strains; all strains of S. aureus tested)?
**A.** ≤ 500 µg/mL

**Q.** And the bactericidal concentration (S. aureus strains; most S. aureus strains)?
**A.** 250 µg/mL

**Q.** And the “Average Bactericidal Concentration” value (Streptococcus agalactiae)?
**A.** 30 mg/mL

**Q.** And the “Average Bactericidal Concentration” value (Mycoplasma hominis)?
**A.** 1 mg/mL

**Q.** What about the “Average Bactericidal Concentration” value (Proteus vulgaris) of the same molecule?
**A.** Not Susceptible
